This is an account of results in ChEMBL document CHEMBL5465560, “Selectivity Literature for EUbOPEN Chemogenomic Library” (2024).

Test [1] concerns the target T1, Calcium/calmodulin-dependent protein kinase type IV (Homo sapiens) (UniProt Q16566).
T1 sequence (whole entry): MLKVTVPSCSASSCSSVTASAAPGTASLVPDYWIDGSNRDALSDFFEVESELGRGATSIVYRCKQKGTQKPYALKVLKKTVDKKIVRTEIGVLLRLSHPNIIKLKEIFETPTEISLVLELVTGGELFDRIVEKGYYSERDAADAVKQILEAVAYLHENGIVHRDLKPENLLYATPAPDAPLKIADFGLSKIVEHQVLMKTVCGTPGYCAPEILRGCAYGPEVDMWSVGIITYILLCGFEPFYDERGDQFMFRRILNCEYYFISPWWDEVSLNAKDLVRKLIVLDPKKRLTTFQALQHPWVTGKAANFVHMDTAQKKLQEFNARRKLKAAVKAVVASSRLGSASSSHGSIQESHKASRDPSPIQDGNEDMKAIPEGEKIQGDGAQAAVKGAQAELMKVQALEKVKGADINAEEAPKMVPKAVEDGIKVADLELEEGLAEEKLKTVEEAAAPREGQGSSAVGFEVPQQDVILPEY
The experiment in a line: Selectivity interaction (Ambit KINOMEscan and KiNATiv profiling in Jurkat cells) EUB0000090b CAMK4. Type of test: cell-based. As to conditions: at 1 µM.

Test [2] deals with T2, Interleukin-1 receptor-associated kinase 3 (Homo sapiens) (UniProt Q9Y616).
T2 sequence (whole entry): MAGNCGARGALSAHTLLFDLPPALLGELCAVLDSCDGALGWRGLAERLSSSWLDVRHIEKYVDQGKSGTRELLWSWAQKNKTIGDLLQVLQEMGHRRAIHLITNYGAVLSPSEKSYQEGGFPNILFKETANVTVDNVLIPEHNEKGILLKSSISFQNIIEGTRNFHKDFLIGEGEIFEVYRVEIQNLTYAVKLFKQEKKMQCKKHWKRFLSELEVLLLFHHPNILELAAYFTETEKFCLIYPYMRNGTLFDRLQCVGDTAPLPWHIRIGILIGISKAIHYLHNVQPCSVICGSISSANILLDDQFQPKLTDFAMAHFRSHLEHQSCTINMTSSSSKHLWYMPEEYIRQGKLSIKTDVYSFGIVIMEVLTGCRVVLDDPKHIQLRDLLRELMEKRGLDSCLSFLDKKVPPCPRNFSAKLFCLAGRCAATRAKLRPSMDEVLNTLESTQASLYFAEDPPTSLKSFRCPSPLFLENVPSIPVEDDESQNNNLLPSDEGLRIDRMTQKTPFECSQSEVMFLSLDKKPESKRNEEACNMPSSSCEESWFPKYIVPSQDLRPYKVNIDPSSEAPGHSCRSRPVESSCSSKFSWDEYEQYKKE
The experiment in a line: Selectivity interaction (KinomeScan (DiscoverX)) EUB0000655a IRAK3. As to conditions: at 10 µM.

The target in test [3] is Tyrosine-protein kinase Fer (Homo sapiens) (UniProt P16591). Nature of the test: Selectivity interaction (KinomeScan (DiscoverX)) EUB0001619a FER. Conditions: at 1 µM.
The target in test [4] is T3, Dual specificity protein kinase TTK (Homo sapiens) (UniProt P33981).
T3 sequence (whole entry): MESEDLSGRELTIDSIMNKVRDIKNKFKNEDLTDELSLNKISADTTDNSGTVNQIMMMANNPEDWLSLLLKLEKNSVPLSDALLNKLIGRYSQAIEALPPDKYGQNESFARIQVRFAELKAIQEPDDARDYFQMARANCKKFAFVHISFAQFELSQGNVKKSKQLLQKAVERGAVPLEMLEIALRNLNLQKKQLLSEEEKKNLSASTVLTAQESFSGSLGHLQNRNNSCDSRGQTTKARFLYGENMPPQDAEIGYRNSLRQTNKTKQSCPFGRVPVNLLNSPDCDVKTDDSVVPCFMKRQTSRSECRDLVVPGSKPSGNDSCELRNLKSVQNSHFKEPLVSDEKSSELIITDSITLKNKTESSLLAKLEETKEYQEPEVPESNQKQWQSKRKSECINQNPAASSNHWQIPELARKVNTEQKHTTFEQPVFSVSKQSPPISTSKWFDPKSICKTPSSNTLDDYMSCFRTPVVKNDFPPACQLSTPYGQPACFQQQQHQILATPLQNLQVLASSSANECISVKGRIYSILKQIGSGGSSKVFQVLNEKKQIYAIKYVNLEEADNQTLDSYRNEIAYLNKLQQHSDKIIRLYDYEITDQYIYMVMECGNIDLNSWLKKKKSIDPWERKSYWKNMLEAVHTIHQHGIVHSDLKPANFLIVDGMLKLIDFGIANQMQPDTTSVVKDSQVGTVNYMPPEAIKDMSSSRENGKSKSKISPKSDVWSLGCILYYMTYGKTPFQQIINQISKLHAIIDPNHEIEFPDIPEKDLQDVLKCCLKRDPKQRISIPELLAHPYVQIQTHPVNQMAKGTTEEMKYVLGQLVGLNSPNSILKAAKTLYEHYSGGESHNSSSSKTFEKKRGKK
Nature of the test: Selectivity interaction (KinomeScan (DiscoverX)) EUB0001619a TTK. As to conditions: at 1 µM.

Test [5] addresses Vasopressin V1a receptor (Homo sapiens) (UniProt P37288). The experiment in a line: Selectivity interaction (Eurofins CEREP Diversity Profile (receptors and ion channels)) EUB0000279b AVPR1A. As to conditions: at 10 µM.
The target in test [6] is Vascular endothelial growth factor receptor 3 (Homo sapiens, UniProt P35916). The experiment in a line: Selectivity interaction (KinomeScan (DiscoverX)) EUB0000618a FLT4. As to conditions: at 10 µM.
In test [7] the target is Activin receptor type-1-like (Homo sapiens) (UniProt P37023). The experiment in a line: Selectivity interaction (KinomeScan (DiscoverX)) EUB0000595a ACVRL1. As to conditions: at 10 µM.
Sequence of Activin receptor type-1-like (Homo sapiens) (P37023 whole entry): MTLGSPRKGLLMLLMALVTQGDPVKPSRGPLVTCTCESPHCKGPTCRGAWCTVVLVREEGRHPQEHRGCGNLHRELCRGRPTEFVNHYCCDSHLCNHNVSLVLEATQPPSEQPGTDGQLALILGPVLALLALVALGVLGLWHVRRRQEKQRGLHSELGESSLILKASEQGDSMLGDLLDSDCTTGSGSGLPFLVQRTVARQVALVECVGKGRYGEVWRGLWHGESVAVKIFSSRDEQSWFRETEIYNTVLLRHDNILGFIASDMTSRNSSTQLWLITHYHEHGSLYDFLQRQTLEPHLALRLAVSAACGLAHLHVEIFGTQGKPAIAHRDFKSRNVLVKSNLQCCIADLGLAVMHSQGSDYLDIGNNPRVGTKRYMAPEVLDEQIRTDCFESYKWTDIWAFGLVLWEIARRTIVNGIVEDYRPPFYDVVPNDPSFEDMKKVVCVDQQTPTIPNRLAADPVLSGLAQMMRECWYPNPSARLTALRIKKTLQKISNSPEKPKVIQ

Sequence of Vascular endothelial growth factor receptor 3 (P35916 whole entry): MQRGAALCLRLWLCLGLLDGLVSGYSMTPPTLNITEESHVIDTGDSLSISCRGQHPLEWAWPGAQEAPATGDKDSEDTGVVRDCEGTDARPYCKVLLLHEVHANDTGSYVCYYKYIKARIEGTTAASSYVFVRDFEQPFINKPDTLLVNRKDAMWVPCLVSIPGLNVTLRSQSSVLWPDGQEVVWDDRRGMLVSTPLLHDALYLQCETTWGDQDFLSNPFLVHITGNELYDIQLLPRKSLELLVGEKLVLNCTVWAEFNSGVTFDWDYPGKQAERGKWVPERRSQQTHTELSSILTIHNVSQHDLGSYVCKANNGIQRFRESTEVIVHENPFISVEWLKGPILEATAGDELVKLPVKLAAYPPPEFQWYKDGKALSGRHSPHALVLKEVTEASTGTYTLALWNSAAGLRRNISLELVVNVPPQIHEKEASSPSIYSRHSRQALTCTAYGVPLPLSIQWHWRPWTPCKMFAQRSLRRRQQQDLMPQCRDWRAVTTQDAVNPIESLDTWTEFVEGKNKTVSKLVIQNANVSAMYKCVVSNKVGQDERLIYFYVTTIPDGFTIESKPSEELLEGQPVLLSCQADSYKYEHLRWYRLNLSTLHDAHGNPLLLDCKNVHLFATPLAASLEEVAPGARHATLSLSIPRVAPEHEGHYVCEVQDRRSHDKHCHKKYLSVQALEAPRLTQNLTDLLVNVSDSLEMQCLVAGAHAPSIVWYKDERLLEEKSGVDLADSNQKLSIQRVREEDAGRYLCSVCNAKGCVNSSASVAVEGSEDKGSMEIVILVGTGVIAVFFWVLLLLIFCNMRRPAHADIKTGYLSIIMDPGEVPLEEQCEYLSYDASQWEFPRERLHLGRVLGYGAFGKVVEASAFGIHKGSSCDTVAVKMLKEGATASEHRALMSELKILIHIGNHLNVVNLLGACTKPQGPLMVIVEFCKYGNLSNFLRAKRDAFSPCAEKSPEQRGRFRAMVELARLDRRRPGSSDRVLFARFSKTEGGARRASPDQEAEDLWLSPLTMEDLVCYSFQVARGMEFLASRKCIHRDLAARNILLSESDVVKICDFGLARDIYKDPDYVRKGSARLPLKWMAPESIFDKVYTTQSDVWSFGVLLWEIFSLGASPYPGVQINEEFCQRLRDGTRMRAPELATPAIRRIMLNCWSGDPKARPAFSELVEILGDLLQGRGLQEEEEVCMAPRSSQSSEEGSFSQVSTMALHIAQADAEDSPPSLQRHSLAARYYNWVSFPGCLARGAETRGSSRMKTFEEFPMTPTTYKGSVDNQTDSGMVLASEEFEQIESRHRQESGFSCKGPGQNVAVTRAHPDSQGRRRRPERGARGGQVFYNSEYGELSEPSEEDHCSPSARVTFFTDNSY
Sequence of Tyrosine-protein kinase Fer (Homo sapiens) (P16591 whole entry, looked up): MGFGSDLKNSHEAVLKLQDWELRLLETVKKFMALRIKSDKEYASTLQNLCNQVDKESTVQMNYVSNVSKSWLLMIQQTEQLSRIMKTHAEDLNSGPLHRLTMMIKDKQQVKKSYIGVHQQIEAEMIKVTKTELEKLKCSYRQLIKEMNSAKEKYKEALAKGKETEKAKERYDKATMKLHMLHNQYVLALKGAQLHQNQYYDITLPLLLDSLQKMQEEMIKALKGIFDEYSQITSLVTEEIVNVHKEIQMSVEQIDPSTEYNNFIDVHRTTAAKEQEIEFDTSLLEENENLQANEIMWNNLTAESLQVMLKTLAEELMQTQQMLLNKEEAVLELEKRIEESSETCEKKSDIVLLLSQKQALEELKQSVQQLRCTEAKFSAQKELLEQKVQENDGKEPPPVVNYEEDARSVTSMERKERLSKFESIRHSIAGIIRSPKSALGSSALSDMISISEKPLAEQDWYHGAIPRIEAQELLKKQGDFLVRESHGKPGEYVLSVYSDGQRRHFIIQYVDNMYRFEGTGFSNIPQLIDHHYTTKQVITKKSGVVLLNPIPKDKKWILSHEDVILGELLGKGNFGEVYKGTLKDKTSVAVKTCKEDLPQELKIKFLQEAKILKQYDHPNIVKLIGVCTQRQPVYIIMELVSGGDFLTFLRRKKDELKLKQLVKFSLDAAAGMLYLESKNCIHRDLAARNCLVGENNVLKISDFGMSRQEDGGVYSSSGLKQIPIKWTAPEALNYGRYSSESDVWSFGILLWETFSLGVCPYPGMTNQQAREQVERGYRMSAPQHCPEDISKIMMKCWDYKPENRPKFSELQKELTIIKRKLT
Sequence of Vasopressin V1a receptor (Homo sapiens) (P37288 whole entry, looked up): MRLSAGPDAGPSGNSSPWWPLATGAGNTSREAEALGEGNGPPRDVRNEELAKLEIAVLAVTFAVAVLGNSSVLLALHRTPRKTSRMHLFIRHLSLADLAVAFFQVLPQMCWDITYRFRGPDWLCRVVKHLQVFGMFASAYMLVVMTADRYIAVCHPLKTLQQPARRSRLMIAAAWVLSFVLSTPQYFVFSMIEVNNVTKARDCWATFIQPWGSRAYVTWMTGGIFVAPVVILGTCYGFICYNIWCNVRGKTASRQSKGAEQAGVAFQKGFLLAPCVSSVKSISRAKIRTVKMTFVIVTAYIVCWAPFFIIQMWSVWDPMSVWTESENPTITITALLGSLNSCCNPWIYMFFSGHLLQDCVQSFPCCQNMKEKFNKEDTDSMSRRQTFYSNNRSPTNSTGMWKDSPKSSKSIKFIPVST

For `CN(C)C/C=C/C(=O)Nc1ccc(C(=O)N2CCCC(Nc3ncc(Cl)c(-c4c[nH]c5ccccc45)n3)C2)cc1` (configuration not stated), the % of control in test [1] turned out to be 69%.
With `CN(C)CCOc1ccc(-c2nc(-c3ccncc3)c(-c3ccc4c(c3)CC/C4=N\O)[nH]2)cc1`, the % of control in test [2] was determined as 71%.
Take `N#Cc1cccc(-c2c[nH]c3ncnc(N4CCOCC4)c23)c1`: the % of control stood at 84% in test [3] and 92% in test [4].
The compound `CC(=O)c1cc(-c2ccccc2OCC2CC2)c2ncccn12` yielded a % of control in test [5] of 89%.
With `O[C@H]1CC[C@H](Nc2ncc3nc(Nc4c(F)cc(F)cc4F)n([C@H]4CCOC4)c3n2)CC1`, the % of control in test [6] is 55%.
In test [7], `COCC(=O)NC/C=C/c1ccc2ncnc(Nc3ccc(Oc4ccc(C)nc4)c(C)c3)c2c1` [CP-724714] returned a % of control of 84%.
